Measurements from the supplement of paper PMC7108870.

Tests used:
HEK293sieSTAT3(wt) [1] = assay: drug sensitivity score (DSS), viability CellTiter-Glo (DSS (dimensionless)); higher = more growth inhibition; extreme values may be limits of the assay; conditions: 72 h; STAT3 variant: wild type
Method in brief: (§1)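 A drug sensitivity score, based on the area of the dose-response curve, was calculated in Breeze after normalising values to negative and positive control wells. It came from HEK293 cells carrying a STAT3-dependent luciferase reporter and overexpressing wild-type or mutant STAT3, plated at 20 μl of 100,000 cells/ml onto compounds acoustically pre-plated at 5 concentrations in 10-fold dilutions in 384-well plates. Following 72 hours at 37°C and 5% CO2, CellTox Green fluorescence (485/520 nm) and then CellTiter-Glo luminescence were read on a PHERAstar FS.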

HEK293sieSTAT3(Y640F) [2] = assay: as above; conditions: 72 h; STAT3 variant: Y640F (constitutively active)
Method in brief: as §1

HEK293sieSTAT3(wt) [3] = assay: drug sensitivity score (DSS), cytotoxicity CellTox Green (DSS (dimensionless)); higher = more cytotoxic; extreme values may be limits of the assay; conditions: 72 h; STAT3 variant: wild type
Method in brief: as §1

HEK293sieSTAT3(Y640F) [4] = assay: as above; conditions: 72 h; STAT3 variant: Y640F (constitutively active)
Method in brief: as §1

SMILES | drug sensitivity score (HEK293sieSTAT3(wt) [1]) | drug sensitivity score (HEK293sieSTAT3(Y640F) [2]) | drug sensitivity score (HEK293sieSTAT3(wt) [3]) | drug sensitivity score (HEK293sieSTAT3(Y640F) [4])
Cc1ccc(NC(=O)c2ccc(CN3CCN(C)CC3)cc2)cc1Nc1nc(-c2cccnc2)cs1 [Masitinib] (top concentration tested 10000 nM) | 7.57 | 4.59 | 5.99 | 0.7
CC(=O)O[C@]1(C(C)=O)CC[C@H]2[C@@H]3C=C(C)C4=CC(=O)CC[C@]4(C)[C@H]3CC[C@@]21C [Megestrol acetate] (top concentration tested 10000 nM) | 0.97 | 3.65 | 0 | 0
N[C@@H](Cc1ccc(N(CCCl)CCCl)cc1)C(=O)O [Melphalan] (top concentration tested 12500 nM) | 0 | 1.69 | 0 | 0
CCN(CC)CCCC(C)Nc1c2ccc(Cl)cc2nc2ccc(OC)cc12 (stereo unspecified) [Mepacrine] (top concentration tested 50000 nM) | 21.4 | 21.1 | 19.7 | 18.1
S=c1[nH]cnc2nc[nH]c12 [Mercaptopurine] (top concentration tested 10000 nM) | 7.64 | 7.54 | 0 | 0
Cc1ccc(C(=O)Nc2ccc(Oc3cc4cnn(C)c4cc3-c3cn[nH]c3)c(F)c2)c(=O)n1-c1ccc(F)cc1 [Merestinib] (top concentration tested 1000 nM) | 1.38 | 4.06 | 0 | 0
CN(C)C(=N)NC(=N)N [Metformin] (top concentration tested 100000 nM) | 2.41 | 0.22 | 2.32 | 0
CN(Cc1cnc2nc(N)nc(N)c2n1)c1ccc(C(=O)N[C@@H](CCC(=O)O)C(=O)O)cc1 [Methotrexate] (top concentration tested 5000 nM) | 17 | 26.1 | 1.17 | 0
C[C@H]1C[C@@H]2[C@H]([C@@H](O)C[C@@]3(C)[C@H]2CC[C@]3(O)C(=O)CO)[C@@]2(C)C=CC(=O)C=C12 [Methylprednisolone] (top concentration tested 10000 nM) | 1.52 | 2.04 | 0 | 0
CO[C@@H]1[C@H](N(C)C(=O)c2ccccc2)C[C@H]2O[C@]1(C)n1c3ccccc3c3c4c(c5c6ccccc6n2c5c31)C(=O)NC4 [Midostaurin] (top concentration tested 10000 nM) | 4.05 | 5.01 | 2.79 | 0
CNC(=O)c1nn(C)c2c1C(C)(C)Cc1cnc(Nc3ccc(N4CCN(C)CC4)cc3)nc1-2 [Milciclib] (top concentration tested 10000 nM) | 15 | 11.2 | 7.5 | 1
CO[C@@]12[C@H](COC(N)=O)C3=C(C(=O)C(C)=C(N)C3=O)N1C[C@@H]1N[C@@H]12 [Mitomycin C] (top concentration tested 10000 nM) | 5.72 | 14.5 | 1.95 | 0.86
Clc1ccc(C(c2ccccc2Cl)C(Cl)Cl)cc1 (stereo unspecified) [Mitotane] (top concentration tested 10000 nM) | 0 | 0 | 0 | 0
O=C1c2c(O)ccc(O)c2C(=O)c2c(NCCNCCO)ccc(NCCNCCO)c21 [Mitoxantrone] (top concentration tested 1000 nM) | 9.78 | 10.6 | 0.93 | 0.1
Nc1ccccc1NC(=O)c1ccc(CNc2nccc(-c3cccnc3)n2)cc1 [Mocetinostat] (top concentration tested 10000 nM) | 13.1 | 11.5 | 6.57 | 2.68
N#CCNC(=O)c1ccc(-c2ccnc(Nc3ccc(N4CCOCC4)cc3)n2)cc1 [Momelotinib] (top concentration tested 10000 nM) | 5.53 | 7.37 | 5.09 | 3.84
CC1(C)CNc2cc(NC(=O)c3cccnc3NCc3ccncc3)ccc21 [Motesanib] (top concentration tested 10000 nM) | 1.53 | 2.6 | 0.6 | 0.35

SMILES | drug sensitivity score (HEK293sieSTAT3(wt) [1]) | drug sensitivity score (HEK293sieSTAT3(Y640F) [2]) | drug sensitivity score (HEK293sieSTAT3(wt) [3]) | drug sensitivity score (HEK293sieSTAT3(Y640F) [4])
FC(F)(F)c1ccc(/C=C/c2nc(COc3ccc(CCCCn4ccnn4)cc3)co2)cc1 [Mubritinib] (top concentration tested 1000 nM) | 5.94 | 8.41 | 0.57 | 0
Cc1cc(OCc2nnc(SC3CCCC3)n2-c2cccnc2)ccc1-c1ccc(S(C)(=O)=O)cc1 [NMS-873] (top concentration tested 10000 nM) | 12.5 | 11.8 | 7.29 | 6.39
CCN1CCN(Cc2ccc(-c3cc4c(N[C@H](C)c5ccccc5)ncnc4[nH]3)cc2)CC1 [NVP-AEE788] (top concentration tested 2500 nM) | 1.25 | 1.43 | 0.32 | 0
CCN1CCN(c2ccc(Nc3cc(N(C)C(=O)Nc4c(Cl)c(OC)cc(OC)c4Cl)ncn3)cc2)CC1 [NVP-BGJ398] (top concentration tested 1000 nM) | 0 | 0.2 | 2.48 | 0
COc1ccc(-c2ccc3ncc4c(c3c2)n(-c2ccc(N3CCNCC3)c(C(F)(F)F)c2)c(=O)n4C)cn1 [NVP-BGT226] (top concentration tested 1000 nM) | 28 | 24.6 | 9.37 | 4.28
CNC(=O)c1ccc(-c2cnc3ncc(Cc4ccc5ncccc5c4)n3n2)cc1F [NVP-INC280] (top concentration tested 1000 nM) | 2.77 | 3.02 | 0 | 0
CC1(C)CCC(c2ccc(Cl)cc2)=C(CN2CCN(c3ccc(C(=O)NS(=O)(=O)c4ccc(N[C@H](CCN5CCOCC5)CSc5ccccc5)c(S(=O)(=O)C(F)(F)F)c4)cc3)CC2)C1 [Navitoclax] (top concentration tested 10000 nM) | 0 | 0 | 0 | 0
COc1nc(N)nc2c1ncn2[C@@H]1O[C@H](CO)[C@@H](O)[C@@H]1O [Nelarabine] (top concentration tested 10000 nM) | 1.07 | 0.7 | 0 | 0
CCOc1cc2ncc(C#N)c(Nc3ccc(OCc4ccccn4)c(Cl)c3)c2cc1NC(=O)/C=C/CN(C)C [Neratinib] (top concentration tested 1000 nM) | 1.99 | 3.35 | 0 | 0
Cc1cn(-c2cc(NC(=O)c3ccc(C)c(Nc4nccc(-c5cccnc5)n4)c3)cc(C(F)(F)F)c2)cn1 [Nilotinib] (top concentration tested 10000 nM) | 3.74 | 3.13 | 0 | 0.16
CC1(C)NC(=O)N(c2ccc([N+](=O)[O-])c(C(F)(F)F)c2)C1=O [Nilutamide] (top concentration tested 10000 nM) | 0.69 | 2.68 | 0.74 | 0
COC(=O)c1ccc2c(c1)NC(=O)/C2=C(\Nc1ccc(N(C)C(=O)CN2CCN(C)CC2)cc1)c1ccccc1 [Nintedanib] (top concentration tested 10000 nM) | 9.79 | 8 | 6.55 | 3.45
NC(=O)c1cccc2cn(-c3ccc([C@@H]4CCCNC4)cc3)nc12 [Niraparib] (top concentration tested 10000 nM) | 13.3 | 8.57 | 9.84 | 1.69
COc1ccc(C2=N[C@@H](c3ccc(Cl)cc3)[C@@H](c3ccc(Cl)cc3)N2C(=O)N2CCNC(=O)C2)c(OC(C)C)c1 [Nutlin-3] (top concentration tested 10000 nM) | 1.15 | 1.89 | 0.87 | 0.07
COc1cccc2cc(-c3nc([C@H]4CC[C@H](C(=O)O)CC4)n4ncnc(N)c34)[nH]c12 [OSI-027] (top concentration tested 10000 nM) | 6.8 | 7.79 | 0 | 0
O=C(Nc1ccc(OC(F)(F)F)cc1)c1sccc1NCc1ccnc2ccccc12 [OSI-930] (top concentration tested 2500 nM) | 1.31 | 0.46 | 0 | 0
CC(=O)c1cnc2ccc(-c3cc(Cl)c(O)c(Cl)c3)nc2c1N[C@H]1CC[C@H](CN(C)C)CC1 [OTSSP167] (top concentration tested 1000 nM) | 21.2 | 21.1 | 5.73 | 5.22
